Tests used:
Assay in all cases: Bliss excess, mean over the matrix (fraction); higher = more synergy
H4 (Low Grade Glioma) = system: H4 (Low Grade Glioma)
Method in brief: (§1)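 Cell lines in DMEM/F12 or RPMI with 10% FBS were plated in 1536-well plates, held 24 hours at 37°C, 5% CO2, then given two-drug dose matrices for 72 hours (DMSO typically 0.2%). Viability was read by CellTiter-Glo 2.0 luminescence and scaled as inhibition from 0 (vehicle wells) to 1 (blank wells). Combination Emax is the second-highest inhibition in the matrix; Bliss excess is observed combination effect minus expected EA + EB − EA·EB, EA and EB being single-agent effects.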

[1] = system: SK-LMS-1 (Other Solid Carcinomas)
Method in brief: as §1

MCF7 (Breast Carcinoma) = system: MCF7 (Breast Carcinoma)
Method in brief: as §1

D-392MG (Glioblastoma) = system: D-392MG (Glioblastoma)
Method in brief: as §1

Saos-2 (Osteosarcoma) = system: Saos-2 (Osteosarcoma)
Method in brief: as §1

[2] = system: D-283MED (Other Solid Carcinomas)
Method in brief: as §1

[3] = system: HLE (Hepatocellular Carcinoma)
Method in brief: as §1

[4] = system: MES-SA (Other Solid Carcinomas)
Method in brief: as §1

[5] = system: SW48 (Colorectal Carcinoma)
Method in brief: as §1

[6] = system: TYK-nu (Ovarian Carcinoma)
Method in brief: as §1

MSTO-211H (Mesothelioma) = system: MSTO-211H (Mesothelioma)
Method in brief: as §1

[7] = system: HCC1143 (Breast Carcinoma)
Method in brief: as §1

[8] = system: SKN-3 (Head and Neck Carcinoma)
Method in brief: as §1

[9] = system: SW948 (Colorectal Carcinoma)
Method in brief: as §1

HCC38 (Breast Carcinoma) = system: HCC38 (Breast Carcinoma)
Method in brief: as §1

[10] = system: HCC-827 (Lung Adenocarcinoma)
Method in brief: as §1

CS1 (Chondrosarcoma) = system: CS1 (Chondrosarcoma)
Method in brief: as §1

[11] = system: SNG-M (Endometrial Carcinoma)
Method in brief: as §1

[12] = system: P31-FUJ (Acute Myeloid Leukemia)
Method in brief: as §1

HuO9 (Osteosarcoma) = system: HuO9 (Osteosarcoma)
Method in brief: as §1

In the case of `COc1cc2ncnc(Nc3ccc(F)c(Cl)c3)c2cc1OCCCN1CCOCC1` [Gefitinib] + CC(C)n1c(=O)n(C)c2cnc3cc(F)c(-c4ccc(OCCCN5CCCCC5)nc4)cc3c21 [AZD1390] (first compound max 10 µM, 7x7, partner max 0.3 µM), the Bliss excess (H4 (Low Grade Glioma)) is reported as -0.0806, the Bliss excess [1] is reported as -0.0726 and the Bliss excess (MCF7 (Breast Carcinoma)) is reported as -0.0395. The Bliss excess (D-392MG (Glioblastoma)) was -0.086, the Bliss excess (Saos-2 (Osteosarcoma)) was -0.0621 and the Bliss excess [2] was -0.0426. It also gave a Bliss excess [3] of -0.0487, a Bliss excess [4] of -0.0458 and a Bliss excess [5] of -0.0516. The Bliss excess [6] was -0.0851, the Bliss excess (MSTO-211H (Mesothelioma)) was -0.0571 and the Bliss excess [7] was -0.0572. For the same compound, the Bliss excess [8] was -0.0688, the Bliss excess [9] was -0.0215 and the Bliss excess (HCC38 (Breast Carcinoma)) was -0.0485. For the same compound, the Bliss excess [10] was -0.0613, the Bliss excess (CS1 (Chondrosarcoma)) was -0.0466 and the Bliss excess [11] was -0.109. The Bliss excess [12] was -0.0201 and the Bliss excess (HuO9 (Osteosarcoma)) was -0.058.
`CS(=O)(=O)CCNCc1ccc(-c2ccc3ncnc(Nc4ccc(OCc5cccc(F)c5)c(Cl)c4)c3c2)o1` [Lapatinib] + C[C@@H](Oc1cc(-c2cnn(C3CCNCC3)c2)cnc1N)c1c(Cl)ccc(F)c1Cl [Crizotinib] (first compound max 10 µM, 7x7, partner max 10 µM) showed a Bliss excess (H4 (Low Grade Glioma)) of 0.002, a Bliss excess [1] of -0.0611 and a Bliss excess (MCF7 (Breast Carcinoma)) of -0.0386. It also gave a Bliss excess (D-392MG (Glioblastoma)) of -0.0528, a Bliss excess (Saos-2 (Osteosarcoma)) of -0.0452 and a Bliss excess [2] of -0.0496. For the same compound, the Bliss excess [3] was -0.072, the Bliss excess [4] was -0.0302 and the Bliss excess [5] was -0.0662. The Bliss excess [6] was -0.0403, the Bliss excess (MSTO-211H (Mesothelioma)) was -0.0667 and the Bliss excess [7] was -0.0312. The Bliss excess [8] was -0.0299, the Bliss excess [9] was -0.0834 and the Bliss excess (HCC38 (Breast Carcinoma)) was -0.0049. For the same compound, the Bliss excess [10] was -0.038, the Bliss excess (CS1 (Chondrosarcoma)) was -0.0093 and the Bliss excess [11] was -0.0413. For the same compound, the Bliss excess [12] was -0.142 and the Bliss excess (HuO9 (Osteosarcoma)) was -0.069.
In the case of `CC(=O)c1c(C)c2cnc(Nc3ccc(N4CCNCC4)cn3)nc2n(C2CCCC2)c1=O` [Palbociclib] + CC1(C)CCC(CN2CCN(c3ccc(C(=O)NS(=O)(=O)c4ccc(NCC5CCOCC5)c([N+](=O)[O-])c4)c(Oc4cnc5[nH]ccc5c4)c3)CC2)=C(c2ccc(Cl)cc2)C1 [Venetoclax] (first compound max 10 µM, 7x7, partner max 1 µM), the Bliss excess (H4 (Low Grade Glioma)) is reported as 0.0013, the Bliss excess [1] is reported as -0.0316 and the Bliss excess (MCF7 (Breast Carcinoma)) is reported as -0.0334. The Bliss excess (D-392MG (Glioblastoma)) was -0.07, the Bliss excess (Saos-2 (Osteosarcoma)) was -0.0417 and the Bliss excess [2] was 0.0132. For the same compound, the Bliss excess [3] was -0.0399, the Bliss excess [4] was 0.0594 and the Bliss excess [5] was -0.0251. It also gave a Bliss excess [6] of -0.0026, a Bliss excess (MSTO-211H (Mesothelioma)) of -0.0922 and a Bliss excess [7] of -0.0237. It also gave a Bliss excess [8] of -0.07, a Bliss excess [9] of -0.089 and a Bliss excess (HCC38 (Breast Carcinoma)) of -0.0437. For the same compound, the Bliss excess [10] was -0.0379, the Bliss excess (CS1 (Chondrosarcoma)) was -0.0457 and the Bliss excess [11] was -0.0501. For the same compound, the Bliss excess [12] was -0.073 and the Bliss excess (HuO9 (Osteosarcoma)) was 0.0056.
With `CC(=O)c1c(C)c2cnc(Nc3ccc(N4CCNCC4)cn3)nc2n(C2CCCC2)c1=O` [Palbociclib] + Cc1c2c(nn1C)CSCc1cc(n(C)n1)CSc1cc(c3ccccc3c1)OCCCc1c(C(=O)O)n(C)c3c-2c(Cl)ccc13 [AZD5991] (first compound max 10 µM, 7x7, partner max 1 µM) the Bliss excess (H4 (Low Grade Glioma)) was -0.0371, the Bliss excess [1] was -0.0081 and the Bliss excess (MCF7 (Breast Carcinoma)) was -0.103. For the same compound, the Bliss excess (D-392MG (Glioblastoma)) was 0.0189, the Bliss excess (Saos-2 (Osteosarcoma)) was -0.0197 and the Bliss excess [2] was 0.0099. For the same compound, the Bliss excess [3] was -0.0339, the Bliss excess [4] was -0.05 and the Bliss excess [5] was 0.0255. It also gave a Bliss excess [6] of -0.0289, a Bliss excess (MSTO-211H (Mesothelioma)) of -0.0265 and a Bliss excess [7] of 0.0011. The Bliss excess [8] was -0.0428, the Bliss excess [9] was 0.0058 and the Bliss excess (HCC38 (Breast Carcinoma)) was -0.0244. For the same compound, the Bliss excess [10] was -0.0324, the Bliss excess (CS1 (Chondrosarcoma)) was -0.035 and the Bliss excess [11] was -0.0233. It also gave a Bliss excess [12] of -0.11 and a Bliss excess (HuO9 (Osteosarcoma)) of 0.0088.
Work on `CC(=O)c1c(C)c2cnc(Nc3ccc(N4CCNCC4)cn3)nc2n(C2CCCC2)c1=O` [Palbociclib] + Cn1cnc2c(F)c(Nc3ccc(Br)cc3Cl)c(C(=O)NOCCO)cc21 [Selumetinib] (first compound max 10 µM, 7x7, partner max 10 µM) yielded a Bliss excess (H4 (Low Grade Glioma)) of 0.0308, a Bliss excess [1] of 0.0539 and a Bliss excess (MCF7 (Breast Carcinoma)) of -0.0013. It also gave a Bliss excess (D-392MG (Glioblastoma)) of -0.0665, a Bliss excess (Saos-2 (Osteosarcoma)) of -0.0402 and a Bliss excess [2] of 0.0045. It also gave a Bliss excess [3] of -0.0418, a Bliss excess [4] of -0.0009 and a Bliss excess [5] of 0.0668. The Bliss excess [6] was -0.065, the Bliss excess (MSTO-211H (Mesothelioma)) was -0.0714 and the Bliss excess [7] was 0.0325. It also gave a Bliss excess [8] of 0.0345, a Bliss excess [9] of -0.0078 and a Bliss excess (HCC38 (Breast Carcinoma)) of -0.0291. The Bliss excess [10] was -0.0172, the Bliss excess (CS1 (Chondrosarcoma)) was 0.0219 and the Bliss excess [11] was -0.117. It also gave a Bliss excess [12] of 0.0152 and a Bliss excess (HuO9 (Osteosarcoma)) of -0.064.
With `COc1cccc(OCCCN)c1-c1cc(Nc2cnc(C#N)cn2)n[nH]1` [Prexasertib] + C=CCn1c(=O)c2cnc(Nc3ccc(N4CCN(C)CC4)cc3)nc2n1-c1cccc(C(C)(C)O)n1 [AZD1775] (first compound max 1 µM, partner max 1 µM) the Bliss excess (H4 (Low Grade Glioma)) was 0.0726, the Bliss excess [1] was 0.0434 and the Bliss excess (MCF7 (Breast Carcinoma)) was 0.0197. The Bliss excess (D-392MG (Glioblastoma)) was 0.109, the Bliss excess (Saos-2 (Osteosarcoma)) was 0.105 and the Bliss excess [2] was 0.079. It also gave a Bliss excess [3] of 0.0125, a Bliss excess [4] of 0.078 and a Bliss excess [5] of 0.1. It also gave a Bliss excess [6] of 0.0459, a Bliss excess (MSTO-211H (Mesothelioma)) of 0.0083 and a Bliss excess [7] of 0.0271. The Bliss excess [8] was 0.119, the Bliss excess [9] was 0.0608 and the Bliss excess (HCC38 (Breast Carcinoma)) was 0.0246. It also gave a Bliss excess [10] of -0.029, a Bliss excess (CS1 (Chondrosarcoma)) of 0.0426 and a Bliss excess [11] of 0.0698. It also gave a Bliss excess [12] of 0.0104 and a Bliss excess (HuO9 (Osteosarcoma)) of 0.109.
Work on `COc1cccc(OCCCN)c1-c1cc(Nc2cnc(C#N)cn2)n[nH]1` [Prexasertib] + CCc1c2c(nc3ccc(O)cc13)-c1cc3c(c(=O)n1C2)COC(=O)[C@]3(O)CC [SN-38] (first compound max 1 µM, 7x7, partner max 0.3 µM) yielded a Bliss excess (H4 (Low Grade Glioma)) of -0.0544, a Bliss excess [1] of -0.0239 and a Bliss excess (MCF7 (Breast Carcinoma)) of -0.0081. It also gave a Bliss excess (D-392MG (Glioblastoma)) of -0.11, a Bliss excess (Saos-2 (Osteosarcoma)) of -0.0064 and a Bliss excess [2] of -0.0222. It also gave a Bliss excess [3] of -0.0359, a Bliss excess [4] of -0.0714 and a Bliss excess [5] of -0.0333. For the same compound, the Bliss excess [6] was -0.0899, the Bliss excess (MSTO-211H (Mesothelioma)) was -0.0857 and the Bliss excess [7] was 0.0452. It also gave a Bliss excess [8] of 0.0703, a Bliss excess [9] of 0.151 and a Bliss excess (HCC38 (Breast Carcinoma)) of -0.0201. For the same compound, the Bliss excess [10] was 0, the Bliss excess (CS1 (Chondrosarcoma)) was -0.0742 and the Bliss excess [11] was -0.0534. The Bliss excess [12] was -0.0507 and the Bliss excess (HuO9 (Osteosarcoma)) was -0.0301.
With `COc1cccc(OCCCN)c1-c1cc(Nc2cnc(C#N)cn2)n[nH]1` [Prexasertib] + CN(C)CCCOc1ccc(-c2ccc3ncc4c(c3c2)n(C2CCOCC2)c(=O)n4C)cn1 [AZD0156] (first compound max 1 µM, 7x7, partner max 1 µM) the Bliss excess (H4 (Low Grade Glioma)) was -0.0309, the Bliss excess [1] was -0.02 and the Bliss excess (MCF7 (Breast Carcinoma)) was 0.149. The Bliss excess (D-392MG (Glioblastoma)) was -0.0235, the Bliss excess (Saos-2 (Osteosarcoma)) was -0.0869 and the Bliss excess [2] was 0.0116. For the same compound, the Bliss excess [3] was -0.0646, the Bliss excess [4] was 0.0641 and the Bliss excess [5] was -0.0227. The Bliss excess [6] was -0.0627, the Bliss excess (MSTO-211H (Mesothelioma)) was -0.0164 and the Bliss excess [7] was -0.0453. It also gave a Bliss excess [8] of 0.011, a Bliss excess [9] of 0.0294 and a Bliss excess (HCC38 (Breast Carcinoma)) of -0.0482. It also gave a Bliss excess [10] of -0.0026, a Bliss excess (CS1 (Chondrosarcoma)) of -0.0324 and a Bliss excess [11] of 0.0305. It also gave a Bliss excess [12] of 0.009 and a Bliss excess (HuO9 (Osteosarcoma)) of -0.0958.

From the supplement of paper PMC11061612
